Assay results published in patent publication US20250066388A1, “1,3,4,7-TETRAHYDRO-2H-PYRROLO[3',2':5,6]PYRIDO[2,3-B][1,4]OXAZEPINE BCL-2 INHIBITORS” (AbbVie Inc., priority 2022, published 2025).
pEC50, pKi: −log10 of the molar value.

Tests used:
Bcl-xL protein = Bcl-xL protein (Homo sapiens (Human), UniProt Q07817); assay: TR-FRET binding assay, Bcl-xL; conditions: F-Bak peptide probe
Molt-4 cells = assay: Cell viability counter screen (CellTiter-Glo) in Molt-4 cells; assay type: cell-based; conditions: 24 hours, 10% Human Serum
Method in brief: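 3000 cells/well (0.1×10^6/mL) were treated with compound for 24 hours in 5% CO2. Viability read by CellTiter-Glo luminescence; Molt-4 (T-ALL) served as the counter screen to RS4;11 (ALL).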

Bcl-2 protein = Bcl-2 protein (Homo sapiens (Human), UniProt P10415); assay: TR-FRET binding assay, Bcl-2; conditions: F-Bak peptide probe, GST-Bcl-2
RS4;11 cells = assay: Cell viability assay (CellTiter-Glo) in RS4;11 cells; assay type: cell-based; conditions: 24 hours, 10% Human Serum
Method: The acute lymphoblastic leukemia (ALL) human cell line RS4;11 (ATCC, Manassas VA) was used as the primary human cell line to assess the cellular activity of compound of the present Examples in vitro and their efficacy in vivo. […] The acute lymphoblastic leukemia cell line Molt-4, which is derived from immature T-lymphoid cells (T-ALL), was used as a counter screen assay.
3000 Cells (0.1×10^6/mL) were seeded in each well of 384-well plate and were treated for 24 hours in a humidified chamber with 5% CO2. Cell viability was determined by CellTiter-Glo as described by the manufacturer's instructions (Promega Corporation, Madison, WI, USA).

Chain of Bcl-2 protein (P10415 other isoform, or with tags, fused parts or gaps): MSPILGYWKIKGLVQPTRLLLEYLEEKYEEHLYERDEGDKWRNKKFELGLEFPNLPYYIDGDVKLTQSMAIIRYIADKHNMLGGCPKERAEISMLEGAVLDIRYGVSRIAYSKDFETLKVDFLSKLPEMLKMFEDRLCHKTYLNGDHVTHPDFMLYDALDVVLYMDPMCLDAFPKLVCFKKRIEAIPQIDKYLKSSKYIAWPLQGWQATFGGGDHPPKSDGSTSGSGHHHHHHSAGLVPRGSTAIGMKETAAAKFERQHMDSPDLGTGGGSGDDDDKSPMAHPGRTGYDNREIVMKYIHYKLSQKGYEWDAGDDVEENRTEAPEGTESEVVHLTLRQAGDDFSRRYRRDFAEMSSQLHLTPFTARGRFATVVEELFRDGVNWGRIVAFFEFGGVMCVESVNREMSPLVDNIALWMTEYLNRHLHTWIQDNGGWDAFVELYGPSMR
Chain of Bcl-xL protein (Q07817 other isoform, or with tags, fused parts or gaps): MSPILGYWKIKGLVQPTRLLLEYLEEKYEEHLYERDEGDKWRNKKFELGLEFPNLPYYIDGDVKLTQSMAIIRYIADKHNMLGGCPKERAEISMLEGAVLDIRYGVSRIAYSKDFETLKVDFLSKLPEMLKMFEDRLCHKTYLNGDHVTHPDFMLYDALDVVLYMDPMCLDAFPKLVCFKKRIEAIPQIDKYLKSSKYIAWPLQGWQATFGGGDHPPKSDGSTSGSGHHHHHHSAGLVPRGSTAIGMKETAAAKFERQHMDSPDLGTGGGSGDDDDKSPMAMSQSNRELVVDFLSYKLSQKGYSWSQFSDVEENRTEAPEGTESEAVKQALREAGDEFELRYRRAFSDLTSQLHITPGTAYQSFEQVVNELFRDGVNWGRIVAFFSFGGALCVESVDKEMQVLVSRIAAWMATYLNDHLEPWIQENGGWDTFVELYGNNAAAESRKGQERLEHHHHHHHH

Row | Structure (SMILES) | pKi (Bcl-xL protein) | pEC50 (Molt-4 cells) | pKi (Bcl-2 protein) | pEC50 (RS4;11 cells)
1 | CC1(C)CC(c2ccc(Cl)cc2)=C2CN3CCN(c4ccc(C(=O)NS(=O)(=O)c5ccc(NCC6CCOCC6)c([N+](=O)[O-])c5)c(N5CCCOc6nc7[nH]ccc7cc65)c4)C[C@H]3COCCCO[C@@H]2C1 [Example 1, 4-((4aS,10aR)-14-(4-chlorophenyl)-12,12-dimethyl-1,2,4a,5,8,9,10a,11,13,15-decahydro-7H,12H-benzo[f]pyrazino[2,1-c][1,8]dioxa[4]azacycloundecin-3(4H)-yl)-2-(3,4-dihydro-2H-pyrrolo[3′,2′:5,6]pyrido[2,3-b][1,4]oxazepin-1(7H)-yl)-N-((3-nitro-4-(((tetrahydro-2H-pyran-4-yl)methyl)amino)phenyl)sulfonyl)benzamide] | 7.71 | < 5.00 | 9.34 | 8.40
2 | CC1(C)CC(c2ccc(Cl)cc2)=C2CN3CCN(c4ccc(C(=O)NS(=O)(=O)c5ccc(NC[C@H]6CC[C@](C)(O)CO6)c([N+](=O)[O-])c5)c(N5CCCOc6nc7[nH]ccc7cc65)c4)C[C@H]3COCCCO[C@@H]2C1 [Example 2, 4-((4aS,10aR)-14-(4-chlorophenyl)-12,12-dimethyl-1,2,4a,5,8,9,10a,11,13,15-decahydro-7H,12H-benzo[f]pyrazino[2,1-c][1,8]dioxa[4]azacycloundecin-3(4H)-yl)-2-(3,4-dihydro-2H-pyrrolo[3′,2′:5,6]pyrido[2,3-b][1,4]oxazepin-1(7H)-yl)-N-((4-((((2R,5S)-5-hydroxy-5-methyltetrahydro-2H-pyran-2-yl)methyl)amino)-3-nitrophenyl)sulfonyl)benzamide] | 8.03 | 5.92 | 10.31 | 9.19
3 | CC1(C)CC(c2ccc(Cl)cc2)=C2CN3CCN(c4ccc(C(=O)NS(=O)(=O)c5ccc(NC[C@H]6C[C@](O)(C7CCC7)C6)c([N+](=O)[O-])c5)c(N5CCCOc6nc7[nH]ccc7cc65)c4)C[C@H]3COCCCO[C@@H]2C1 [Example 15, 4-((4aS,10aR)-14-(4-chlorophenyl)-12,12-dimethyl-1,2,4a,5,8,9,10a,11,13,15-decahydro-7H,12H-benzo[f]pyrazino[2,1-c][1,8]dioxa[4]azacycloundecin-3(4H)-yl)-2-(3,4-dihydro-2H-pyrrolo[3′,2′:5,6]pyrido[2,3-b][1,4]oxazepin-1(7H)-yl)-N-((4-((((1s,3s)-1-hydroxy-[1,1′-bi(cyclobutan)]-3-yl)methyl)amino)-3-nitrophenyl)sulfonyl)benzamide] | 7.86 | 5.59 | 9.26 | 8.25
4 | CC1(C)CC(c2ccc(Cl)cc2)=C2CN3CCN(c4ccc(C(=O)NS(=O)(=O)c5ccc(NCC6(O)CCOCC6)c([N+](=O)[O-])c5)c(N5CCCOc6nc7[nH]ccc7cc65)c4)C[C@H]3COCCCO[C@@H]2C1 [Example 18, 4-((4aS,10aR)-14-(4-chlorophenyl)-12,12-dimethyl-1,2,4a,5,8,9,10a,11,13,15-decahydro-7H,12H-benzo[f]pyrazino[2,1-c][1,8]dioxa[4]azacycloundecin-3(4H)-yl)-2-(3,4-dihydro-2H-pyrrolo[3′,2′:5,6]pyrido[2,3-b][1,4]oxazepin-1(7H)-yl)-N-((4-(((4-hydroxytetrahydro-2H-pyran-4-yl)methyl)amino)-3-nitrophenyl)sulfonyl)benzamide] | 8.08 | 6.37 | 9.65 | 8.84
5 | CC1(C)CC(c2ccc(Cl)cc2)=C2CN3CCN(c4ccc(C(=O)NS(=O)(=O)c5ccc(NC[C@H]6CC[C@H](N7CCOCC7)CC6)c([N+](=O)[O-])c5)c(N5CCCOc6nc7[nH]ccc7cc65)c4)C[C@H]3COCCCO[C@@H]2C1 [Example 28, 4-((4aS,10aR)-14-(4-chlorophenyl)-12,12-dimethyl-1,2,4a,5,8,9,10a,11,13,15-decahydro-7H,12H-benzo[f]pyrazino[2,1-c][1,8]dioxa[4]azacycloundecin-3(4H)-yl)-2-(3,4-dihydro-2H-pyrrolo[3′,2′:5,6]pyrido[2,3-b][1,4]oxazepin-1(7H)-yl)-N-((4-((((1r,4r)-4-morpholinocyclohexyl)methyl)amino)-3-nitrophenyl)sulfonyl)benzamide] | 8.33 | 6.56 | 9.08 | 9.06
6 | C[C@@H]1CO[C@@H](COc2ccc(S(=O)(=O)NC(=O)c3ccc(N4CCN5CC6=C(c7ccc(Cl)cc7)CC(C)(C)C[C@H]6OCCCOC[C@@H]5C4)cc3N3CCCOc4nc5[nH]ccc5cc43)cc2[N+](=O)[O-])CO1 [Example 20, 4-((4aS,10aR)-14-(4-chlorophenyl)-12,12-dimethyl-1,2,4a,5,8,9,10a,11,13,15-decahydro-7H,12H-benzo[f]pyrazino[2,1-c][1,8]dioxa[4]azacycloundecin-3(4H)-yl)-2-(3,4-dihydro-2H-pyrrolo[3′,2′:5,6]pyrido[2,3-b][1,4]oxazepin-1(7H)-yl)-N-((4-(((2R,5R)-5-methyl-1,4-dioxan-2-yl)methoxy)-3-nitrophenyl)sulfonyl)benzamide] | 7.76 | 5.79 | 9.01 | 8.28
7 | CC1(C)CC(c2ccc(Cl)cc2)=C2CN3CCN(c4ccc(C(=O)NS(=O)(=O)c5ccc(NC[C@H]6CC[C@@](C)(O)CC6)c([N+](=O)[O-])c5)c(N5CCCOc6nc7[nH]ccc7cc65)c4)C[C@H]3COCCCO[C@@H]2C1 [Example 36, 4-((4aS,10aR)-14-(4-chlorophenyl)-12,12-dimethyl-1,2,4a,5,8,9,10a,11,13,15-decahydro-7H,12H-benzo[f]pyrazino[2,1-c][1,8]dioxa[4]azacycloundecin-3(4H)-yl)-2-(3,4-dihydro-2H-pyrrolo[3′,2′:5,6]pyrido[2,3-b][1,4]oxazepin-1(7H)-yl)-N-((4-((((1s,4s)-4-hydroxy-4-methylcyclohexyl)methyl)amino)-3-nitrophenyl)sulfonyl)benzamide] | 7.95 | 6.93 | 10.22 | 8.83
8 | CC1(C)CC(c2ccc(Cl)cc2)=C2CN3CCN(c4ccc(C(=O)NS(=O)(=O)c5ccc(NCC6(O)COC6)c([N+](=O)[O-])c5)c(N5CCCOc6nc7[nH]ccc7cc65)c4)C[C@H]3COCCCO[C@@H]2C1 [Example 17, 4-((4aS,10aR)-14-(4-chlorophenyl)-12,12-dimethyl-1,2,4a,5,8,9,10a,11,13,15-decahydro-7H,12H-benzo[f]pyrazino[2,1-c][1,8]dioxa[4]azacycloundecin-3(4H)-yl)-2-(3,4-dihydro-2H-pyrrolo[3′,2′:5,6]pyrido[2,3-b][1,4]oxazepin-1(7H)-yl)-N-((4-(((3-hydroxyoxetan-3-yl)methyl)amino)-3-nitrophenyl)sulfonyl)benzamide] | 8.20 | 6.14 | 9.12 | 8.55
9 | CC1(C)CC(c2ccc(Cl)cc2)=C2CN3CCN(c4ccc(C(=O)NS(=O)(=O)c5ccc(NCC6(F)CCN(C7COC7)CC6)c([N+](=O)[O-])c5)c(N5CCCOc6nc7[nH]ccc7cc65)c4)C[C@H]3COCCCO[C@@H]2C1 [Example 39, 4-((4aS,10aR)-14-(4-chlorophenyl)-12,12-dimethyl-1,2,4a,5,8,9,10a,11,13,15-decahydro-7H,12H-benzo[f]pyrazino[2,1-c][1,8]dioxa[4]azacycloundecin-3(4H)-yl)-2-(3,4-dihydro-2H-pyrrolo[3′,2′:5,6]pyrido[2,3-b][1,4]oxazepin-1(7H)-yl)-N-((4-(((4-fluoro-1-(oxetan-3-yl)piperidin-4-yl)methyl)amino)-3-nitrophenyl)sulfonyl)benzamide] | 8.28 | 6.34 | 9.71 | 8.78
10 | CO[C@H]1CC[C@H](COc2ccc(S(=O)(=O)NC(=O)c3ccc(N4CCN5CC6=C(c7ccc(Cl)cc7)CC(C)(C)C[C@H]6OCCCOC[C@@H]5C4)cc3N3CCCOc4nc5[nH]ccc5cc43)cc2[N+](=O)[O-])OC1 [Example 33, 4-((4aS,10aR)-14-(4-chlorophenyl)-12,12-dimethyl-1,2,4a,5,8,9,10a,11,13,15-decahydro-7H,12H-benzo[f]pyrazino[2,1-c][1,8]dioxa[4]azacycloundecin-3(4H)-yl)-2-(3,4-dihydro-2H-pyrrolo[3′,2′:5,6]pyrido[2,3-b][1,4]oxazepin-1(7H)-yl)-N-((4-(((2R,5S)-5-methoxytetrahydro-2H-pyran-2-yl)methoxy)-3-nitrophenyl)sulfonyl)benzamide] | 7.54 | 5.22 | 9.57 | 8.46
11 | CC1(C)CC(c2ccc(Cl)cc2)=C2CN3CCN(c4ccc(C(=O)NS(=O)(=O)c5ccc(OCC6(F)CCN(C7COC7)CC6)c([N+](=O)[O-])c5)c(N5CCCOc6nc7[nH]ccc7cc65)c4)C[C@H]3COCCCO[C@@H]2C1 [Example 19, 4-((4aS,10aR)-14-(4-chlorophenyl)-12,12-dimethyl-1,2,4a,5,8,9,10a,11,13,15-decahydro-7H,12H-benzo[f]pyrazino[2,1-c][1,8]dioxa[4]azacycloundecin-3(4H)-yl)-2-(3,4-dihydro-2H-pyrrolo[3′,2′:5,6]pyrido[2,3-b][1,4]oxazepin-1(7H)-yl)-N-((4-((4-fluoro-1-(oxetan-3-yl)piperidin-4-yl)methoxy)-3-nitrophenyl)sulfonyl)benzamide] | 8.65 | 6.88 | 9.32 | 9.06
